In patent publication US20110092445A1, “Amyloid ß peptide analogues, oligomers thereof, processes for preparing and composi-tions comprising said analogues or oligomers, and their uses” (Abbott Laboratories, priority 2008, published 2011):
Bridges are numbered along the chain shown (N, C = ends). Where no end group is shown, it is not given here. The star is where a group is joined. Acm = CC(=O)NC*

Assays:
[1] = test system: globulomer-specific antibodies (mAb 5F7, mAb 7C6, rabbit polyclonal antiserum 5599); assay: Direct ELISA, response to globulomer-specific antibodies; type: binding; conditions: for display of the globulomer epitope: oligomers before thermolysin truncation, 5F7, 7C6, antiserum 5599; for reactivity of cross-linked oligomers to the globulomer-specific antibodies: after intra-molecular cross-linking, FIGS. 14-16, 18; for change in affinity to the globulomer-specific antibodies upon truncation with thermolysin: after thermolysin truncation versus untruncated oligomer
Excerpt: (§1) Materials: Microtiterplates were Nunc Immuno Plate, Maxi-Sorb Surface, flat bottom, (Catalogue #439454). The conjugate (secondary antibody) was Donkey anti-mouse HRPO conjugate, Jackson Immuno Research, (Catalogue #715-035-150). The HRPO Substrate was 3,3′,5′5′-Tetramethylbenzidine Liquid substrate (TMB), Sigma, (Catalogue #T4444). Non-fat Dry Milk (NFDM), was from BioRad, (Catalogue #170-6404). All other chemicals were from conventional sources.
(§2) Buffers and solutions: PBST buffer: Sigma PBS made with 0.05% Tween 20. PBST with 0.5% BSA was made by dissolving […] BSA in 100 mL PBST. Blocking solution was 3% NFDM in PBST. Conjugate diluent was 1% NFDM in PBST. The coating buffer was 100 mM NaHCO3 pH8.2. The HRPO Stop Solution was 2 M H2SO4.
(§3) Coating the plates: The Aβ globulomer to be tested was diluted to 1.0 μg/mL in coating buffer. 100 μL were added to each well to be coated. Plate was sealed with sealing film and left at 4° C. overnight.
(§4) Plate Blocking: The coating solution was removed from the wells. Each well was optionally washed 2-3× with 150 μL of PBST. 300 μL of blocking solution were added (3% NFDM in PBST). Plate was covered with plate sealing film and incubated for ˜2 hrs at room temperature, with agitation.
(§5) Primary Antibody: The blocking solution was removed from the wells. Each well was optionally washed 2-3× with 150 μL of PBST. 100 μL of primary antibody solutions were added. For the full length N-Met Aβ(1-42) globulomer, solutions of 0.04 to 100 μg/mL of antibody 5F7 were used. The antibody was diluted using PBST with 0.5% BSA. The plate was covered with plate sealing film and incubated for ˜2 to 3 hrs at room temperature with agitation.
Secondary Antibody (HRPO Conjugate): The primary antibody solution was removed from the wells. Each well was washed 2-3× with 150 μL of PBST. 200 μL of secondary antibody (HRPO conjugate) solution diluted 1:5000 in PBST with 1% NFDM were added. The plate was covered with plate sealing film and incubated for ˜1 hr at room temperature with agitation.
Substrate Development: The conjugate solution was removed from the wells. Each well was washed 2-3× with 200 μL of PBST. 100 μL of HRPO substrate solution were added to each well. Color was allowed to develop under observation. It turned blue. The reaction was usually done in 5-10 minutes at room temperature. 50 μL of stop solution were added to each well. The blue color turned yellow. Absorbance at 450 nm was read using a microtiterplate reader within 30 min of addition of the stop solution.

[2] = for homogeneity of oligomers in sedimentation velocity experiments / hydrodynamic properties relative to wild-type N-Met Aβ(1-42) (truncated) globulomer: FIG. 5A-5C; for hydrodynamic homogeneity after truncation at residue 20 by thermolysin: presence (FIG. 5B) and absence (FIG. 5C) of 0.05% SDS
Experimental: Samples were loaded into standard two-sector cells using sapphire windows. All samples were examined using either a 4-hole or an 8-hole rotor.
Conditions were as follows: temperature: 20° C., rotor speed: 42,000 rpm, interference data was collected, absorbance data was collected at 280 nm in continuous mode with a radial step size of 0.003 cm. One data point was collected per step (no signal averaging). Typically, 200 scans or less were collected over the course of no more than 9 hrs.
A continuous S distribution analysis (C(s) analysis) was done as implemented in Sedfit v8.9 (P. Schuck (2000), “Size distribution analysis of macromolecules by sedimentation velocity ultracentrifugation and Lamm equation modeling”, Biophysical Journal 78:1606-1619) to understand the overall heterogeneity of the samples. Both radial and time independent noise were fit and removed from the data using a maximal entropy algorithm.

[3] = test system: globulomer-specific monoclonal antibody 5F7; assay: Direct ELISA, binding of globulomer-specific mAb 5F7 to coated oligomer; set-up: species or system murine; conditions: FIG. 3A; for binding of the globulomer-specific monoclonal antibody 5F7 (direct ELISA response): N-Met Aβ(1-42) globulomer compared with mutant oligomer
Excerpt: as §1, §2, §3, §4, §5
Secondary Antibody (HRPO Conjugate): The primary antibody solution was removed from the wells. Each well was washed 2-3× with 150 μL of PBST. 200 μL of secondary antibody (HRPO conjugate) solution diluted 1:5000 in PBST with 1% NFDM were added. […]
Substrate Development: The conjugate solution was removed from the wells. […] Absorbance at 450 nm was read using a microtiterplate reader within 30 min of addition of the stop solution.

Substance	display of the globulomer epitope [1]	change in affinity to the globulomer-specific antibodies upon truncation with thermolysin [1]	further results
(17C(ACM), 34C(ACM)) Aβ(16-35) oligomer (KC(Acm)VFFAEDVGSNKGAIIGC(Acm)M; also: oligomer; UniProt P05067 687-706, looked up, variant L17C L34C) [3l]	not able to form oligomers that displayed the globulomer epitope	–	–
(17K, 34C) N-Met Aβ(1-42) oligomer [example 3w]	display the globulomer epitope	–	–
(17K, 34E) N-Met Aβ(1-42) oligomer [example 3x]	display the globulomer epitope	–	–
Aβ(16-35)-amide oligomer (KLVFFAEDVGSNKGAIIGLM-NH2; also: oligomer; UniProt P05067 687-706, looked up, fragment) [example 3m]	not able to form oligomers that displayed the globulomer epitope	–	–
Dissulfide stabilized (17C, 34C) N-Met Aβ(1-42) oligomer [example 2a]	–	–	homogeneity of oligomers in sedimentation velocity experiments [2]: formed homogeneous oligomers; hydrodynamic properties relative to wild-type N-Met Aβ(1-42) (truncated) globulomer [2]: displayed better hydrodynamic properties; binding of the globulomer-specific monoclonal antibody 5F7 (direct ELISA response) [3]: almost identical; display of the globulomer-specific epitope ([3]; mAb 5F7): still displays the globulomer-specific epitope
Disulfide-stabilized (17C, 34C) Aβ(12-42) oligomer (VHHQKCVFFAEDVGSNKGAIIGCMVGGVVIA; disulfide 6-23; also: oligomer; UniProt P05067 683-713, looked up, variant L17C L34C) [example 4k]	displayed the globulomer epitope	–	–
Disulfide-stabilized (17C, 34C) Aβ(16-42) oligomer (KCVFFAEDVGSNKGAIIGCMVGGVVIA-OH; disulfide 2-19; also: oligomer; UniProt P05067 687-713, looked up, variant L17C L34C) [example 4s]	displayed the globulomer epitope	–	–
EDC/NHS-linked (17K, 34E) N-Met Aβ(1-42) oligomer [example 4x]	–	expected increase in affinity	reactivity of cross-linked oligomers to the globulomer-specific antibodies [1]: still display the appropriate reactivity
MBS-linked (17K, 34C) N-Met Aβ(1-42) oligomer [example 4w2]	–	expected increase in affinity	reactivity of cross-linked oligomers to the globulomer-specific antibodies [1]: still display the appropriate reactivity
N-Met Aβ(1-42) globulomer [reference compound]	–	–	homogeneity of oligomers in sedimentation velocity experiments [2]: formed homogeneous oligomers; hydrodynamic homogeneity after truncation at residue 20 by thermolysin [2]: too heterogeneous to be examined; binding of the globulomer-specific monoclonal antibody 5F7 (direct ELISA response) [3]: almost identical
SIAB-linked (17K, 34C) N-Met Aβ(1-42) oligomer [example 4w3]	–	expected increase in affinity	reactivity of cross-linked oligomers to the globulomer-specific antibodies [1]: still display the appropriate reactivity
SMCC-linked (17K, 34C) N-Met Aβ(1-42) oligomer [example 4w1]	–	expected increase in affinity	reactivity of cross-linked oligomers to the globulomer-specific antibodies [1]: still display the appropriate reactivity
Thermolysin truncation of [(17C, 34C) Aβ(16-35)-amide, cyclic] oligomer [example 5o]	–	expected increase in affinity	–
Thermolysin truncation of disulfide stabilized (17C, 34C) Aβ(12-42) oligomer [example 5k]	–	expected increase in affinity	–
Thermolysin truncation of disulfide stabilized (17C, 34C) Aβ(16-42) oligomer [example 5s]	–	expected increase in affinity	–
Thermolysin truncation of disulfide stabilized (17C, 34C) N-Met Aβ(1-42) oligomer [example 5y]	–	–	homogeneity of oligomers in sedimentation velocity experiments [2]: formed homogeneous oligomers; hydrodynamic properties relative to wild-type N-Met Aβ(1-42) (truncated) globulomer [2]: displayed better hydrodynamic properties; hydrodynamic homogeneity after truncation at residue 20 by thermolysin [2]: remains significantly more hydrodynamically homogeneous
[(17C, 34C) Aβ(16-35)-amide, cyclic] oligomer (KCVFFAEDVGSNKGAIIGCM-NH2; disulfide 2-19; also: oligomer; UniProt P05067 687-706, looked up, variant L17C L34C) [example 4o]	displayed the globulomer epitope	–	–
